One assay concerns Nakaseomyces glabratus. In words: Antifungal activity against Candida glabrata ATCC 537 after 24 hrs to 1 week. The class given is functional.
A further assay concerns Trichophyton rubrum. Nature of the assay: Antifungal activity against Trichophyton rubrum Cmccftla after 24 hrs to 1 week. Type of assay: functional.
A further assay concerns Cryptococcus neoformans. Nature of the assay: Antifungal activity against Cryptococcus neoformans ATCC 32609 after 24 hrs to 1 week. Type of assay: functional.
Another assay has as its system A549. Nature of the assay: Cytotoxicity against human A549 cells by MTT assay. The class given is cell-based. For orientation: Tetrazolium assays rely on reduction of a dye to a coloured formazan, in cell work by metabolically active cells.
In a further assay the test system is HL-60. Nature of the assay: Cytotoxicity against human HL60 cells by MTT assay. The class given is cell-based.
For another assay, the system named is Aspergillus fumigatus. In words: Antifungal activity against Aspergillus fumigatus ATCC 07544 after 24 hrs to 1 week. The class given is functional.

pIC50: −log10 of the molar value. Converted amounts (≈) assume the structure as drawn. Bounds are passed on as bounds.

Regarding `C[C@@H]1[C@H](O)[C@@H](C)/C=C/C=C/C=C/C=C/C=C/C=C/C=C/[C@H](O[C@@H]2O[C@H](C)[C@@H](O)[C@H](N)[C@@H]2O)C[C@@H]2O[C@](O)(C[C@@H](O)C[C@@H](O)[C@H](O)CC[C@@H](O)C[C@@H](O)CC(=O)O[C@H]1C)C[C@H](O)[C@H]2C(=O)O` [AMPHOTERICIN B], the MIC80 (in general, an inhibitory concentration at the 80% level, which refers to growth in some studies and to a panel of isolates in others) was 2 µg/mL (≈ 2.16 µM) in the assay on Nakaseomyces glabratus, 1 µg/mL (≈ 1.08 µM) against Trichophyton rubrum and 4 µg/mL (≈ 4.33 µM) in the assay with Cryptococcus neoformans.

Consider `Cc1ccc(C)c(/C=C/C(C)(C)O)c1/C=C/C(C)(C)O`, for which the pIC50 in the assay on A549 and in the assay with HL-60 was no more than 4.00 throughout. For the same compound, the MIC80 with Nakaseomyces glabratus is 64 µg/mL (≈ 233 µM); with Aspergillus fumigatus, no less than 64 µg/mL; with Trichophyton rubrum, 64 µg/mL (≈ 233 µM); against Cryptococcus neoformans, 64 µg/mL (≈ 233 µM).

Take `COc1cccc2c1C(=O)c1c(O)c3c(c(O)c1C2=O)C[C@@](O)(C(=O)CO)C[C@@H]3O[C@H]1C[C@H](N)[C@H](O)[C@H](C)O1` [DOXORUBICIN]: the pIC50 (as a rule, the negative decadic logarithm of the IC50, by convention in mol/L) in the assay on HL-60 was 6.92.

On to `CC(C)=C[C@H]1c2c(C)ccc(C)c2[C@@H](O)[C@@H]1C(C)(C)O` (relative stereo), for which the negative logarithm of the IC50 (pIC50) with A549 and with HL-60 was no more than 4.00 in each case. The MIC80 against Nakaseomyces glabratus was 4 µg/mL (≈ 14.6 µM); against Aspergillus fumigatus, no less than 64 µg/mL; against Trichophyton rubrum, 16 µg/mL (≈ 58.3 µM); against Cryptococcus neoformans, 4 µg/mL (≈ 14.6 µM).
